Data published in US20040022744A1, “Method of treating dental caries and remineralizing lesions” (priority 2001, published 2004).

Tests used:
[1] = test system: microflora from primary root carious lesions (PRCL); test: Ozone effect on microflora from primary root caries ex-vivo; assay type: cell-based; conditions: for Mean ± SE of Total cfu (Log10): after 10 seconds of ozone treatment
Text: Primary root carious lesions (PRCL) are a major clinical problem. The aim of this study was to establish if ozone could achieve effective microbial killing in PRCL. An ozone producing generator (Purezone Ltd., Ipswich, U.K.) was used in this ex-vivo study assessing the use of ozone on PRCL. In this study, soft PRCL requiring restoration were used as these are the most severe type of lesion found in humans. 20 freshly extracted teeth with PRCL requiring restoration were used. After plaque removal using a hand held standard fine nylon fiber sterile toothbrush with sterile water as a lubricant to cleanse the surface, each tooth was then isolated using sterile cotton wool rolls and dried using a dry sterile cotton wool roll. […] Each sample was weighed and immediately placed in 1 ml of Fastidious Anaerobe Broth (FAB). To each 1 ml of FAB containing a biopsy o carious or ozone treated carious dentine, sterile glass beads were added. They were vortexed for 30 seconds to facilitate the extraction of any micro-organisms from the carious dentine and disperse any aggregates. After decimal dilution with FAB, […] of these was spread on Fastidious Anaerobe Agar (LabM, Bury, Lancs., U.K.) supplemented with 5% (V/V) horse blood in an anaerobic chamber at 37° C. for four days. The mean±SE number of each colony type was counted and calculated.
The procedure of Example 2 was repeated except that ozonized water was applied to the lesion for 20 seconds.
The aims of these studies were to evaluate the efficiency of ozone on primary root caries and associated micro-organisms (Streptococcus sobrinus; TH 21 Streptococcus mutans; NCTC 10449). In study 1, 40 soft primary root carious lesions (PRCLs) from freshly extracted teeth were used and randomly divided into two groups to test the exposure to ozone for either 10 or 20 seconds. There was a significant (p<0.001) difference (Mean±SE) between the control samples for either 10 seconds (log10 5.91±0.15) or 20 seconds (log10 6.18±0.21) and ozone treated samples for either 10 seconds (log10 3.57±0.37) or 20 seconds (log10 3.77±0.42). In study 2, 40 sterile saliva coated glass beads were put into bijoux bottles with 3 mls of Todd Hewitt broth for control and test groups. S. sobrinus and S. mutans were inoculated and incubated anaerobically overnight. Each glass bead was washed with 2 mls of PBS. Immediately, 10 seconds of ozone was applied to the glass beads in the test groups. Subsequently, each glass bead in the test and control groups was placed in 3 mls of Todd Hewitt broth with six more sterile glass beads and were vortexed for 30 seconds. […] The number of each colony type was counted and calculated. […]

[2] = test system: Streptococcus sobrinus; TH 21; test: Ozone on micro-organisms on saliva coated glass beads; assay type: cell-based; conditions: S. sobrinus on saliva coated glass beads, 10 seconds of ozone
Text: The aims of these studies were to evaluate the efficiency of ozone on primary root caries and associated micro-organisms (Streptococcus sobrinus; TH 21 Streptococcus mutans; NCTC 10449). In study 1, 40 soft primary root carious lesions (PRCLs) from freshly extracted teeth were used and randomly divided into two groups to test the exposure to ozone for either 10 or 20 seconds. There was a significant (p<0.001) difference (Mean±SE) between the control samples for either 10 seconds (log10 5.91±0.15) or 20 seconds (log10 6.18±0.21) and ozone treated samples for either 10 seconds (log10 3.57±0.37) or 20 seconds (log10 3.77±0.42). In study 2, 40 sterile saliva coated glass beads were put into bijoux bottles with 3 mls of Todd Hewitt broth for control and test groups. S. sobrinus and S. mutans were inoculated and incubated anaerobically overnight. Each glass bead was washed with 2 mls of PBS. Immediately, 10 seconds of ozone was applied to the glass beads in the test groups. Subsequently, each glass bead in the test and control groups was placed in 3 mls of Todd Hewitt broth with six more sterile glass beads and were vortexed for 30 seconds. After decimal dilutions, […] were spread on blood agar plates supplemented with 5% (V/V) horse blood and placed in an anaerobic chamber at 37° C. for two days. The number of each colony type was counted and calculated. […]

O=[O+][O-] [ozone]
percentage of micro-organisms killed ([1]; 10 seconds of ozone, PRCL ex vivo): more than 99% | Mean ± SE of Total cfu (Log10) ([1]; soft PRCL of extracted teeth): 3.57±0.37 Log10 | Mean ± SE of Total cfu (Log10) ([1]; soft PRCL of extracted teeth, listed as Ozone): 3.57 ± 0.37 Log10 | Total cfu (log10), mean±SE ([1]; after 20 seconds of ozone treatment, soft PRCL of extracted teeth): 3.77±0.42 log10 | colony count (log10), Mean ±SE [2]: 1.09±0.36 log10
